Assay results taken from patent US5270332A, “Cholesteral lowering agents” (Merck & Co., Inc., priority 1992, dated 1993).

Legend:
[1] = molecular target: T1, squalene synthase (human HepG2 enzyme) (Homo sapiens, UniProt P37268); test: Squalene synthase assay, human HepG2 cell enzyme; format: biochemical; settings: 3 μM 3H-farnesyl pyrophosphate, 30°, 20 minutes
T1 construct: The resulting pellet from the 100,000×g centrifugation, containing the squalene synthase, was resuspended in 5 ml of enzyme suspension buffer; endogenous in cells; host or cells: HepG2 cells (ATCC HB 8065), 100,000×g microsomal pellet
T1 sequence (P37268 1-417): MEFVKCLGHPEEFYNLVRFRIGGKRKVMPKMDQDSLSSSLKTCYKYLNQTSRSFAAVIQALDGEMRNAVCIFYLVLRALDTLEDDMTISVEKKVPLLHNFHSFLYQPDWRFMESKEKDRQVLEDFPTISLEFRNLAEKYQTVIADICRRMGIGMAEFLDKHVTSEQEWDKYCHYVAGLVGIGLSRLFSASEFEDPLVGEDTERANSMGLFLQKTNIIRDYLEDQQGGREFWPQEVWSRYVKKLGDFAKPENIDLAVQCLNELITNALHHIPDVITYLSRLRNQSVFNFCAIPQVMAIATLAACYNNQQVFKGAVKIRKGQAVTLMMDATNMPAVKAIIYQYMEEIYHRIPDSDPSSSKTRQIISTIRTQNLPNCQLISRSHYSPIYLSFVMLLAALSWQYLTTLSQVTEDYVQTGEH
Method: The intrinsic squalene synthase inhibitory activity of representative compounds of this invention was also measured by the standard in vitro protocol described below:
PREPARATION OF HUMAN HepG2 cell ENZYME
1. SOURCE: HEPG2 CELL LINE (Liver, hepatoblastoma, Human) ATCC No. HB 8065
2. CELL GROWTH AND MAINTENANCE
Culture Medium: Minimum essential medium (MEM) with non essential amino acids, sodium pyruvate, and 10% fetal bovine serum. The medium was changed twice weekly. […] The growth medium was prepared as listed below:
SUBCULTURE PROCEDURE: The medium was removed and washed with PBS (Phosphate-Buffered Saline 15.6 mM. pH 7.0). Fresh trypsin (0.25%)-EDTA (0.02%) with Hank's Balanced Salt solution was added and the flask was allowed to stand for a minute before the trypsin was removed. The flask was incubated at 37° C. until cells detached. Fresh medium was added and the cells were dispersed and dispensed into new flasks. Subcultivation ration: 1:6. […]
HARVEST: The medium was removed and the cells were washed with PBS. […] Cells 1 were counted (2.5×10^9 yield from 18 flasks (75cm^2)), and resuspended in 10 ml of 50 mM HEPES (N-[2-Hydroxyethyl]piperazine-N'-[2-ethane sulfonic acid]) containing 5 mM MgCl2, 2 mM MnCl2, 10 mM DTT, pH 7.5 (enzyme suspension buffer). […]

[2] = molecular target: T2, squalene synthase (rat liver enzyme) (Rattus norvegicus, UniProt Q02769); test: Squalene synthase assay using rat liver microsomes; format: biochemical; settings: [3H]farnesyl-pyrophosphate, 30° C., 20 minutes
T2 construct: from tissue; host or cells: liver microsomes of male Charles River CD rats fed 0.1% lovastatin for 4 days
T2 sequence (Q02769 1-416): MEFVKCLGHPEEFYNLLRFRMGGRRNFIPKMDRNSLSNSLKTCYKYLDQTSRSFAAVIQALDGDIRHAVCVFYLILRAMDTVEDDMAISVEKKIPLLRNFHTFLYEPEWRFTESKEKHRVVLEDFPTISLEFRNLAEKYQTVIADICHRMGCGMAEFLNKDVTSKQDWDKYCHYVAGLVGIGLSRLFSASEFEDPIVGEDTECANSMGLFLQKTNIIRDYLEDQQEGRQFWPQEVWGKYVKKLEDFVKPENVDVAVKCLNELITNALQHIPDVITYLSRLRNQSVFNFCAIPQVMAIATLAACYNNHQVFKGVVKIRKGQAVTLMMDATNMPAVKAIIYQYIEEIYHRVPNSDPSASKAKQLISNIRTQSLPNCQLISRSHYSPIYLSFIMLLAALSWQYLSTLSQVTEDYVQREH
Method: The squalene synthase assay using rat liver microsomes is described below:
Preparation of Rat Liver Microsomes
Male, Charles River CD rats (120 to 150 g) were fed a diet containing 0.1% lovastatin for 4 days. The livers from these rats were homogenized in 5 volumes (ml/g) of ice cold 50 mM HEPES (4-(2-hydroxyethyl)-1-piperazine ethanesulfonic acid), 5 mM EDTA (ethylenediaminetetraacetic acid) pH 7.5 with a Potter-Elvehjem type tissue grinder. The homogenate was centrifuged twice at 20,000×g for 15 minutes at 4° C., discarding the pellet each time. The supernatant was then centrifuged at 100,000×g for 1 hour at 4° C. The resulting microsomal pellet was resuspended in a volume of the above homogenizing buffer equal to one fifth the volume of the original homogenate. This microsomal preparation has a protein concentration of about 7 mg/ml. The microsomal suspensions were stored in aliquots at -70° C. […]
If a squalene epoxidase inhibitor (ingredient 7, above) is not used, the assay mix is degassed under a vacuum and flushed with N2. […] Five ml of scintillation fluid was added to the heptane solution and radioactivity was determined by liquid scintillation counting.
Percent inhibition is calculated by the formula: [formula]
IC50 values were determined by plotting the log of the concentration of the test compound versus the percentage inhibition. […]

Ras farnesylation = settings: literature (Hancock et al.; Casey et al.; Schafer et al.); cited from earlier work

Row | Compound | IC50 [1] [nM] | IC50 [2] [nM] | Inhibition of Ras farnesylation in vivo (Ras farnesylation)
1 | CC(O)C(O)CCCCC=CCCCCC(=O)OC1C(O)C2(CCC(C)C(O)C(C)CC=Cc3ccccc3)OC(C(=O)O)C(O)(C(=O)O)C1(C(=O)O)O2 (stereo not shown) [Compound A] | 31 | 5.6 | 
2 | CC[C@H](C)C(=O)O[C@H]1CCC=C2C=C[C@H](C)[C@H](CC[C@@H]3C[C@@H](O)CC(=O)O3)[C@H]21 [compactin] |  |  | Inhibition of Ras farnesylation in vivo has been demonstrated
3 | CC[C@H](C)C(=O)O[C@H]1C[C@@H](C)C=C2C=C[C@H](C)[C@H](CC[C@@H]3C[C@@H](O)CC(=O)O3)[C@H]21 [lovastatin] |  |  | Inhibition of Ras farnesylation in vivo has been demonstrated
